Results on one molecule are retold here after patent US12391698B2, “Substituted piperidines and piperazines and methods for the treatment of CNS disorders” (SUVEN LIFE SCIENCES LIMITED, priority 2022, dated 2025).

Counter-ions that a name gives are not always drawn.

Data set [1] deals with Male Wistar rats. Kind of data set: MK-801-induced amnesia in novel object recognition task (NORT). Type of data set: in vivo, rat. The conditions noted are these: 0.3 mg/kg, p.o., MK-801 0.03 mg/kg, i.p. The protocol:
Male Wistar rats of 230-280 g body weight were used. Rats were weighed and randomized according to their body weights. On day 1, animals were habituated to the arenas for 45 min. On day 2, 30 min before the trial-1 animals were administered with vehicle (WFI) or test compound and 20 min before the trial-1 the animals were administered with MK-801 0.03 mg/kg, i.p. Trial-1 is familiarization task in the arena with two similar kind of silver color flasks of same dimensions for a period of 3 min. After an inter trial interval of 90 min animals were subjected to recognition task in the arena with one silver and one violet bottle for a period of 3 min. Time spent by the rats with either familiar or novel objects was noted and analyzed. MK-801-induced amnesia in novel object recognition task models cognitive deficits associated with schizophrenia.

The next data set deals with Male CD1 mice. As to the kind of experiment: Resident-intruder task. Type of data set: in vivo, mouse. The settings on record: 3.0 mg/kg, p.o., 30 min prior to trial. The protocol:
Male CD1 mice of weight 20-35 g (Resident) and 15-25 g (Intruder) were used. Resident mice were habituated individually with an ovariectomized female mouse in each cage and intruders were habituated socially for 1 week. β-estradiol at a dose of 0.2 mg/kg, s.c. was administered to female mice during habituation. On day 1 and day 2, intruder was exposed to resident mouse in resident's home cage for a period of 10 min and duration of attack was measured. During this exposure, female mouse were removed from the cage. On day 4 from initial exposure, animals were randomized based on their duration of attacking and administered respective treatments. Test compound and vehicle were administered 30 min prior to the trial. After post dose interval resident mice were exposed to same intruder for 10 min and duration of attack was recorded. Resident intruder task models aggressive behavior.

Another data set deals with dopamine receptor. Kind of data set: Reserpine-induced dihydroxyphenylalanine (DOPA) accumulation assay in rat striatum. The conditions noted are these: s.c. Type of data set: in vivo. The protocol: Reserpine (5.0 mg/kg, s.c.) was injected, after which rats were fasted for 18 h before sacrifice. […] Each rat was sacrificed and the striatum was dissected out of the whole brain on ice. Each striatum was weighed and homogenized individually in buffer containing 0.01 N hydrochloric acid and 0.2 mg/ml L-cysteine. Supernatants were subjected for quantification of DOPA using HPLC coupled to electrochemical detector.

Data set [2] has as its system Dopamine and norepinephrine levels in prefrontal cortex and striatum. As to the kind of experiment: Modulation in dopamine and norepinephrine levels in prefrontal cortex and striatum (microdialysis). Format: in vivo. The settings on record: male Wistar rats; for mean maximum increase in dopamine levels in prefrontal cortex / mean maximum increase in norepinephrine levels in prefrontal cortex: s.c. (so in the source), basal = 100%.

The subject of data set [3] is Male Wistar rats. As to the kind of experiment: Effect on sleep/wake profile (EEG/EMG telemetry). Type of data set: in vivo, rat. The settings on record: 10 mg/kg, p.o., dosed 15 min prior to lights-off. An excerpt: Male Wistar rats were anesthetized with isoflurane (Baxter India Private Limited: 4% in oxygen for induction; 2% for maintenance) and were fixed into the stereotaxic frame (Stoelting, Illinois, USA) to perform surgery. An incision was made to reveal bregma from which coordinates were taken. Telemetric transmitter (Model F40-EET; DSI, St. Paul, MN, USA) was implanted into intraperitoneal cavity of the rats and leads were tunneled subcutaneously to the skull. One pair of electrodes were implanted epidurally into the frontal cortex region using stainless steel screws (CMA Microdialysis, Stockholm, Sweden) at coordinates of AP +3.2 mm, ML ±3.0 mm (Paxinos and Watson 2004) for recording of EEG and electrodes were fixed to the skull with dental acrylic cement (Dentalon® plus). The second set of lead wires were implanted into the neck nuchal muscle to record electromyogram (EMG). After a surgical recovery of minimum 3 weeks, animals were acclimatized to the handling procedures and were given a mock dosing for 3 days before the first experimental day.
One hour prior to lights-off, transmitter was switched on using a magnet and animals were transferred on to the receiver along with the home cage. […]
The amount of time spent in wake was determined for every 30 min and comparison between treatments was done using Bonferroni's post test.

In data set [4] the test system is Male Wistar rats. As to the kind of experiment: Rotarod test. Format: in vivo, rat. The settings on record: 30 mg/kg p.o., 60 min prior to trial. The protocol: Male Wistar rats of 200-280 g body weight were used. Rats were weighed and randomized according to their body weights. The animals were habituated on a rotating rod (4 rpm) for 4 times. Animals which successfully stayed on the rotating rod for 60 seconds (out of 4 trials per animal) were selected for further study. […] A single trial was carried out on the next day. Animals that were able to stay on the rotating rod for 60 seconds were chosen for further study. Animals were administered with test compound or vehicle 60 min prior to the trial. The latency to fall from the rotating rod was noted. Rotarod test assesses effects of test compound on motor functions.
On the technique in general: Falling from the rotarod earlier than controls is read as motor impairment.

As to `O=C1C[C@@H]2CCCN2C(=O)N1CCCCN1CCN(c2nsc3ccccc23)CC1` [Example 2, 2-[4-(4-Benzo[d]isothiazol-3-yl-piperazin-1-yl)-butyl]-tetrahydro-pyrrolo[1,2-c]pyrimidine-1,3-dione oxalate], the “Inference, MK-801-induced amnesia in NORT” value in the data set on Male Wistar rats [1] is “Active”. In addition, the “Inference, resident intruder task (duration of attack)” value in the data set with Male CD1 mice is “Active”. For the same molecule, in the data set with dopamine receptor (10 mg/kg, rat, reserpine 5.0 mg/kg), the “change in reserpine elevated DOPA levels in striatum” value is listed as “no change”. Besides, in the data set on dopamine receptor (pre-treatment before apomorphine 0.1 mg/kg, rat striatum), the “effect of pre-treatment on apomorphine's decrease of reserpine-induced DOPA accumulation” value is listed as “blocked the effects of apomorphine”. For the same molecule, in data set [2] (3 mg/kg), the “mean maximum increase in dopamine levels in prefrontal cortex” value is recorded as 326±24% and the “mean maximum increase in norepinephrine levels in prefrontal cortex” value is on record as 187±30%. In data set [2] (10 mg/kg), the “mean maximum increase in dopamine levels in prefrontal cortex” value was found to be 458±91% and the “mean maximum increase in norepinephrine levels in prefrontal cortex” value is listed as 368±99%. Further, the “change in dopamine levels in striatum” value in data set [2] is on record as “no change”. In the data set with Male Wistar rats [3], the “change in percent time wake” value is listed as “no change”. The “Inference, rotarod test (motor incoordination side effects)” value in the data set with Male Wistar rats [4] is given as “No motor incoordination”.
